Six molecules from ChEMBL document CHEMBL6096657, “Exploring structure-directed immunogenic cytotoxicity of arginine-rich peptides for cytolysis-induced immunotherapy of cancer” (Bioorg Med Chem, 2024) can be followed below.

Series [1] relates to 4T1. The series can be described thus: Cytotoxicity against mouse 4T1 cells assessed as cell viability by MTT assay. It counts as functional, cell-based.
For series [2], the system named is 4T1. The series can be described thus: Induction of immunogenic cell death in mouse 4T1 cells assessed as HMGB1 release at 4 to 32 uM measured after 2 hrs. It counts as functional, cell-based. The following applies: dose 4-32 µM.
The subject of series [3] is 4T1. Kind of series: Induction of apoptosis in mouse 4T1 cells assessed as increase in caspase-3 activity measured at 30 mins. In kind it is functional, cell-based.
Series [4] relates to 4T1. The series can be described thus: Induction of necroptosis in mouse 4T1 cells assessed as increase in cell viability in presence of necrostatin-1 by MTT assay. Particulars: dose 0.625-30 µM. In kind it is functional, cell-based.
In series [5] the test system is 4T1. The series can be described thus: Cytotoxicity against mouse 4T1 cells assessed as cell death rate at 8 uM by PI staining based confocal microscopic analysis. In kind it is functional.
Series [6] concerns 4T1. The series can be described thus: Induction of apoptosis in mouse 4T1 cells assessed as increase in late necrotic cell death incubated for 24 hrs by Annexin V/FITC staining based flow cytometry analysis. In kind it is functional.
The test system of series [7] is 4T1. The series can be described thus: Cytotoxicity against mouse 4T1 cells assessed as cell death rate at 8 uM measured after 1 hr by MTT assay. In kind it is functional.
Series [8] in a line: Cytotoxicity against mouse BMDM cells. It counts as toxicity, cell-based. The following applies: BMDM cells (bone marrow-derived macrophages).
For series [9], the system named is 4T1. The series can be described thus: Induction of ROS generation in mouse 4T1 cells 24 hrs by DCFDA-fluorescence based flow cytometry. In kind it is functional, cell-based.
Series [10] deals with 4T1. The series can be described thus: Induction of immunogenic cell death in mouse 4T1 cells assessed as ATP release at 4 to 32 uM measured after 2 hrs. In kind it is functional, cell-based. Particulars: dose 4-32 µM.
Series [11] deals with 4T1. Kind of series: Induction of immunogenic cell death in mouse 4T1 cells assessed as ATP release at 4 to 32 uM measured after 4 hrs. In kind it is functional, cell-based. Particulars: dose 4-32 µM.
A short description of series [12]: Cytotoxicity against mouse BMDC cells. It counts as toxicity, cell-based. The following applies: BMDC cells (bone marrow-derived dendritic cells).
The test system of another series is THP-1. The series can be described thus: Induction of M1 macrophage polarization in human THP-1 cells assessed as increase in IL-1beta level measured after 48 hrs. In kind it is functional, cell-based.
Series [13] relates to 4T1. Kind of series: Cytotoxicity against mouse 4T1 cells at 8 uM measured after 15 mins by MTT assay. It counts as functional, cell-based.
Series [14] deals with 4T1. Kind of series: Cytotoxicity against mouse 4T1 cells. In kind it is functional, cell-based.
In series [15] the test system is 4T1. The series can be described thus: Induction of apoptosis in mouse 4T1 cells assessed as increase in caspase-3 activity measured at 60 mins. It counts as functional, cell-based.
Series [16] concerns 4T1. The series can be described thus: Induction of immunogenic cell death in mouse 4T1 cells assessed as increase in CRT translocation to cell surface at 4 to 32 uM. In kind it is functional, cell-based. The following applies: dose 4-32 µM.
Series [17] deals with 4T1. Kind of series: Induction of morphological changes in mouse 4T1 cells at 8 uM by PI staining based confocal microscopic analysis. It counts as functional, cell-based.
Series [18] concerns 4T1. Kind of series: Induction of necrosis in mouse 4T1 cells cocultured with mouse BMDC cells at 12 uM incubated for 4 hrs by flow cytometry analysis. In kind it is functional, cell-based.
Series [19] has as its system 4T1. The series can be described thus: Antitumor activity against mouse 4T1 cells implanted in mouse assessed as reduction in tumor size. It counts as functional, cell-based.
In series [20] the test system is 4T1. The series can be described thus: Induction of apoptosis in mouse 4T1 cells assessed as cell death in presence of Ac-DEVD-CHO. It counts as functional, cell-based.
The test system of series [21] is 4T1. Kind of series: Cytotoxicity against mouse 4T1 cells assessed as cell death rate at 4 uM measured after 2 hrs by MTT assay. It counts as functional.
Series [22] deals with 4T1. The series can be described thus: Cytotoxicity against mouse 4T1 cells assessed as cell death rate at 10 uM by PI staining based confocal microscopic analysis. It counts as functional.
The test system of series [23] is 4T1. The series can be described thus: Induction of morphological changes in mouse 4T1 cells at 10 uM by PI staining based confocal microscopic analysis. It counts as functional, cell-based.
For series [24], the system named is 4T1. The series can be described thus: Induction of apoptosis in mouse 4T1 cells assessed as early apoptotic cell incubated for 24 hrs by Annexin V/FITC staining based flow cytometry analysis. It counts as functional.
Series [25] deals with 4T1. The series can be described thus: Cytotoxicity against mouse 4T1 cells assessed as cell death rate at 4 uM measured after 15 mins by MTT assay. It counts as functional, cell-based.
Series [26] has as its system 4T1. The series can be described thus: Induction of necrosis in mouse 4T1 cells cocultured with mouse BMDC cells at 15 uM incubated for 4 hrs by flow cytometry analysis. In kind it is functional, cell-based.
Series [27] deals with 4T1. The series can be described thus: Induction of immunogenic cell death in mouse 4T1 cells assessed as HMGB1 release at 4 to 32 uM measured after 4 hrs. The following applies: dose 4-32 µM. In kind it is functional, cell-based.
For series [28], the system named is 4T1. Kind of series: Induction of necrosis in mouse 4T1 cells cocultured with mouse BMDC cells at 6 uM incubated for 4 hrs by flow cytometry analysis. In kind it is functional, cell-based.
In series [29] the test system is 4T1. Kind of series: Induction of immunogenic cell death in mouse 4T1 cells assessed as ATP release at 2 to 16 uM measured after 2 hrs. In kind it is functional, cell-based. Particulars: dose 2-16 µM.
Series [30] deals with 4T1. Kind of series: Induction of morphological changes in mouse 4T1 cells at 4 uM by PI staining based confocal microscopic analysis. In kind it is functional, cell-based.
Series [31] concerns 4T1. The series can be described thus: Cytotoxicity against mouse 4T1 cells assessed as cell death rate at 4 uM measured at 30 mins by MTT assay relative to control. In kind it is functional. Particulars: 0.5 h.
The test system of series [32] is 4T1. The series can be described thus: Induction of immunogenic cell death in mouse 4T1 cells assessed as ATP release at 2 to 16 uM measured after 4 hrs. The following applies: dose 2-16 µM. It counts as functional, cell-based.
Series [33] deals with 4T1. The series can be described thus: Induction of immunogenic cell death in mouse 4T1 cells assessed as HMGB1 release at 2 to 16 uM measured after 2 hrs. It counts as functional, cell-based. The following applies: dose 2-16 µM.
In series [34] the test system is 4T1. The series can be described thus: Cytotoxicity against mouse 4T1 cells assessed as cell death rate at 4 uM measured at 15 mins by MTT assay relative to control. It counts as functional. The following applies: 0.25 h.
The test system of series [35] is 4T1. The series can be described thus: Induction of immunogenic cell death in mouse 4T1 cells assessed as increase in CRT translocation to cell surface at 2 to 16 uM. It counts as functional, cell-based. Particulars: dose 2-16 µM.

Each structure is given as a SMILES string. Active and inactive are the calls of the source. The rule behind the calls is not given here. Where a SMILES comes first, the peptide text is derived from it. Bridges are numbered along the chain shown (N, C = ends).

For `CC(=O)N[C@H]1CSSC[C@@H](C(=O)N[C@@H](CC(C)C)C(=O)N[C@@H](Cc2ccccc2)C(=O)N[C@@H](Cc2c[nH]c3ccccc23)C(=O)N[C@@H](Cc2ccccc2)C(N)=O)NC(=O)[C@H](CCCNC(=N)N)NC(=O)[C@H](CCCNC(=N)N)NC(=O)[C@H](CCCNC(=N)N)NC(=O)[C@H](CCCNC(=N)N)NC(=O)[C@H](CCCNC(=N)N)NC(=O)[C@H](CCCNC(=N)N)NC(=O)[C@H](CCCNC(=N)N)NC(=O)[C@H](CCCNC(=N)N)NC1=O` (Ac-CRRRRRRRRCLFWF-NH2; disulfide 1-10), in the series on 4T1 [1], the half-maximal inhibitory concentration (IC50) worked out at 8.5 µM.
In the case of `CC(=O)N[C@@H](Cc1ccccc1)C(=O)N[C@@H](Cc1c[nH]c2ccccc12)C(=O)N[C@@H](Cc1ccccc1)C(=O)N[C@@H](CC(C)C)C(=O)N[C@H]1CSSC[C@@H](C(N)=O)NC(=O)[C@H](CCCNC(=N)N)NC(=O)[C@H](CCCNC(=N)N)NC(=O)[C@H](CCCNC(=N)N)NC(=O)[C@H](CCCNC(=N)N)NC(=O)[C@H](CCCNC(=N)N)NC(=O)[C@H](CCCNC(=N)N)NC(=O)[C@H](CCCNC(=N)N)NC(=O)[C@H](CCCNC(=N)N)NC1=O` (Ac-FWFLCRRRRRRRRC-NH2; disulfide 5-14), the outcome in the series with 4T1 [2], with 4T1 [5], with 4T1 [6], with 4T1 [9], in the series on 4T1 [10] and in the series on 4T1 [11] was Active. Besides, the result in the series with THP-1, in the series on 4T1 [13], in the series on 4T1 [16], with 4T1 [17], in the series on 4T1 [18] and in the series on 4T1 [19] was Active. Also, the outcome with 4T1 [3] and in the series with 4T1 [15] was inactive. For the same molecule, the values for the Activity entry with 4T1 [4] and with 4T1 [7] were “Dose-dependent-effect” and 50%, respectively. The IC50 in [8] stood at 10.3 µM; in the series with 4T1 [1] it was 7.5 µM; in series [12], 7.8 µM; in the series with 4T1 [14], 7.5 µM.
`CC(=O)N[C@@H](CC(C)C)C(=O)N[C@@H](CC(C)C)C(=O)N[C@@H](CC(C)C)C(=O)N[C@@H](CC(C)C)C(=O)N[C@H]1CSSC[C@@H](C(N)=O)NC(=O)[C@H](CCCNC(=N)N)NC(=O)[C@H](CCCNC(=N)N)NC(=O)[C@H](CCCNC(=N)N)NC(=O)[C@H](CCCNC(=N)N)NC(=O)[C@H](CCCNC(=N)N)NC(=O)[C@H](CCCNC(=N)N)NC(=O)[C@H](CCCNC(=N)N)NC(=O)[C@H](CCCNC(=N)N)NC1=O` (Ac-LLLLCRRRRRRRRC-NH2; disulfide 5-14): the IC50 with 4T1 [1] came out at 9.3 µM.
`CC(=O)N[C@@H](CCCNC(=N)N)C(=O)N[C@@H](CC(C)C)C(=O)N[C@@H](CC(C)C)C(=O)N[C@@H](CCCNC(=N)N)C(=O)N[C@@H](CC(C)C)C(=O)N[C@@H](CC(C)C)C(=O)N[C@@H](CCCNC(=N)N)C(=O)N[C@@H](CC(C)C)C(=O)N[C@@H](CCCNC(=N)N)C(=O)N[C@@H](CCCNC(=N)N)C(=O)N[C@@H](CC(C)C)C(=O)N[C@@H](CC(C)C)C(=O)N[C@@H](CCCNC(=N)N)C(=O)N[C@@H](CC(C)C)C(N)=O` (Ac-RLLRLLRLRRLLRL-NH2): the outcome with 4T1 [2], in the series on 4T1 [3], in the series with 4T1 [20], in the series with 4T1 [22], with 4T1 [9] and with 4T1 [10] was Active. Further, the outcome in the series with 4T1 [11], in the series with 4T1 [24], with 4T1 [25], in the series on 4T1 [15], in the series with 4T1 [26] and with 4T1 [27] was Active. In addition, the Activity with 4T1 [21] was 50%. The concentration for half-maximal inhibition (IC50) in the series with 4T1 [1] turned out to be 9.3 µM. Moreover, the result in the series on 4T1 [23] was inactive.
In the case of `CC(=O)N[C@@H](CCCNC(=N)N)C(=O)N[C@@H](CC(C)C)C(=O)N[C@@H](CC(C)C)C(=O)N[C@@H](CCCNC(=N)N)C(=O)N[C@@H](CC(C)C)C(=O)N[C@@H](CC(C)C)C(=O)N[C@@H](CCCNC(=N)N)C(=O)N[C@@H](CCCNC(=N)N)C(=O)N[C@@H](CC(C)C)C(=O)N[C@@H](CC(C)C)C(=O)N[C@@H](CCCNC(=N)N)C(=O)N[C@@H](CC(C)C)C(=O)N[C@@H](CC(C)C)C(=O)N[C@@H](CCCNC(=N)N)C(N)=O` (Ac-RLLRLLRRLLRLLR-NH2), the outcome with 4T1 [28], in the series on 4T1 [29], in the series on 4T1 [32], in the series on 4T1 [33] and with 4T1 [35] was Active. Also, the result in the series with 4T1 [3], in the series on 4T1 [30], in the series on 4T1 [9] and in the series with 4T1 [15] was inactive. The IC50 in the series with 4T1 [1] stood at 3.3 µM. The results for the Activity in the series on 4T1 [31] and in the series with 4T1 [34] were 50% and 30%, respectively.
With `N=C(N)NCCC[C@@H]1NC(=O)[C@H](CCCNC(=N)N)NC(=O)[C@H](CCCNC(=N)N)NC(=O)[C@H](CCCNC(=N)N)NC(=O)[C@H](CCCNC(=N)N)NC(=O)[C@H](CCCNC(=N)N)NC(=O)[C@H](CCCNC(=N)N)NC(=O)[C@H](CCCNC(=N)N)NC(=O)[C@@H](NC(=O)[C@H](Cc2ccccc2)NC(=O)[C@H](Cc2ccccc2)NC(=O)[C@H](Cc2ccccc2)NC(=O)[C@@H](N)Cc2ccccc2)CSSC[C@@H](C(=O)O)NC1=O` (H-FFFFCRRRRRRRRC-OH; disulfide 5-14), the IC50 with 4T1 [1] was 8.8 µM.
